± gives the standard deviation of the averaged measurements.
How the values were obtained:
Conditions in all cases: 72 h
MOLM-13 [1] = system: MOLM-13
Procedure, shortened: (§1)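 In 384-well plates holding acoustically pre-printed compounds at five tenfold doses from 1 to 10,000 nM, in duplicate, fifteen myeloid leukaemia cell lines were grown in RPMI 1640 for 72 h at 37 °C with 5% CO2. Luminescent ATP viability was scaled between vehicle and a positive control at 10 µM. The IC50 was then taken from log-logistic dose–response fits with four parameters.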

BV-173 [2] = system: BV-173
Procedure, shortened: as §1

ML-2 [3] = system: ML-2
Procedure, shortened: as §1

KU-812 [4] = system: KU-812
Procedure, shortened: as §1

KCL-22 [5] = system: KCL-22
Procedure, shortened: as §1

KG-1 [6] = system: KG-1
Procedure, shortened: as §1

HEL = system: HEL
Procedure, shortened: as §1

LAMA-84 [7] = system: LAMA-84
Procedure, shortened: as §1

Mono-Mac-6 = system: Mono-Mac-6
Procedure, shortened: as §1

K-562 [8] = system: K-562
Procedure, shortened: as §1

THP-1 [9] = system: THP-1
Procedure, shortened: as §1

NOMO-1 [10] = system: NOMO-1
Procedure, shortened: as §1

MV4-11 [11] = system: MV4-11
Procedure, shortened: as §1

SHI-1 = system: SHI-1
Procedure, shortened: as §1

HL-60 [12] = system: HL-60
Procedure, shortened: as §1

HL-60 [13] = assay: cell viability (% survival relative to DMSO control); higher = less cytotoxic
Procedure, shortened: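 Four-parameter log-logistic fits in drc and PharmacoGx supplied area under the curve where it is given. Underlying viability came from CellTiter-Glo, normalised to DMSO and proteasome-inhibitor wells, with the proteasome inhibitor at 10 μM. HL-60 cells in RPMI 1640 plus 10% FBS had been rescreened against the full library at five tenfold concentrations of 1–10,000 nM, in duplicate on 384-well plates, with DMSO or 100 nM of one of three metabolic inhibitors, for 72 h at 37 °C, 5% CO2.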

MOLM-13 [14] = assay: cell viability (% survival relative to DMSO control, bortezomib = 0%); higher = less cytotoxic
Procedure, shortened: (§2)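 After 72 h at 37 °C with 5% CO2, cell viability in 384-well plates was measured by CellTiter-Glo luminescence. The plates held compounds pre-printed at 1, 10, 100, 1000 or 10000 nM in duplicate, and cells from 10 AML and 5 CML lines seeded at densities titrated to linear growth. Percent survival is the duplicate mean, normalised to vehicle as 100% and a 10 µM positive control as 0%.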

BV-173 [15] = assay: as above
Procedure, shortened: as §2

ML-2 [16] = assay: as above
Procedure, shortened: as §2

KU-812 [17] = assay: as above
Procedure, shortened: as §2

KCL-22 [18] = assay: as above
Procedure, shortened: as §2

KG-1 [19] = assay: as above
Procedure, shortened: as §2

LAMA-84 [20] = assay: as above
Procedure, shortened: as §2

K-562 [21] = assay: as above
Procedure, shortened: as §2

THP-1 [22] = assay: as above
Procedure, shortened: as §2

NOMO-1 [23] = assay: as above
Procedure, shortened: as §2

MV4-11 [24] = assay: as above
Procedure, shortened: as §2

HL-60 [25] = assay: as above
Procedure, shortened: as §2

CC1(C)[C@@H](O[C@H]2O[C@H](C(=O)O)[C@@H](O)[C@H](O)[C@H]2O[C@@H]2O[C@H](C(=O)O)[C@@H](O)[C@H](O)[C@H]2O)CC[C@]2(C)[C@H]3C(=O)C=C4[C@@H]5C[C@@](C)(C(=O)O)CC[C@]5(C)CC[C@@]4(C)[C@]3(C)CC[C@@H]12 [Glycyrrhizin]
Conditions | IC50 (cell viability) [µM]
BV-173 [2] | > 10
HEL | > 10
HL-60 [12] | > 10
K-562 [8] | > 10
KCL-22 [5] | > 10
KG-1 [6] | > 10
KU-812 [4] | > 10
LAMA-84 [7] | > 10
ML-2 [3] | > 10
MOLM-13 [1] | > 10
MV4-11 [11] | > 10
Mono-Mac-6 | > 10
NOMO-1 [10] | > 10
SHI-1 | > 10
THP-1 [9] | > 10

cell viability [%], HL-60 [13]
Conditions | 0.001 µM | 0.01 µM | 0.1 µM | 1 µM | 10 µM
co-treatment: AZD3965 100 nM | 103 ± 1.1 | 102 ± 6.2 | 102 ± 4 | 102.6 ± 0.12 | 105 ± 3.8
co-treatment: DMSO vehicle | 102 ± 4.5 | 103 ± 1.6 | 95.5 ± 2.6 | 98.7 ± 3 | 101 ± 3
co-treatment: GSK2194069 100 nM | 102 ± 6.3 | 100 ± 5.3 | 105 ± 10 | 110.4 ± 0.55 | 104 ± 3.1
co-treatment: pictilisib 100 nM | 94 ± 8.3 | 99.5 ± 4.6 | 99.1 ± 9.6 | 97.7 ± 1.7 | 103 ± 2.7

cell viability [%]
Conditions | 1 nM | 10 nM | 100 nM | 1000 nM | 10000 nM
BV-173 [15] | 88.9 | 109 | 117 | 95.4 | 83.4
HL-60 [25] | 74.5 | 101 | 113 | 103 | 98.7
K-562 [21] | 88.7 | 87.5 | 102 | 91.6 | 83.4
KCL-22 [18] | 89.9 | 95.3 | 105 | 99.3 | 97.2
KG-1 [19] | 90 | 108 | 114 | 101 | 106
KU-812 [17] | 87.4 | 92 | 107 | 99.6 | 84.3
LAMA-84 [20] | 94.9 | 98.8 | 98.7 | 92.7 | 102
ML-2 [16] | 101 | 110 | 104 | 114 | 99.5
MOLM-13 [14] | 70.1 | 91.4 | 133 | 79.3 | 92.3
MV4-11 [24] | 89 | 108 | 108 | 85.3 | 102
NOMO-1 [23] | 97.5 | 107 | 103 | 100 | 93.4
THP-1 [22] | 92.1 | 103 | 95.8 | 98.4 | 96.2

Nc1ccccc1C(=O)C[C@H](N)C(=O)O [L-Kynurenine]
Conditions | IC50 (cell viability) [µM]
BV-173 [2] | > 10
HEL | > 10
HL-60 [12] | > 10
K-562 [8] | > 10
KCL-22 [5] | > 10
KG-1 [6] | > 10
KU-812 [4] | > 10
LAMA-84 [7] | > 10
ML-2 [3] | > 10
MOLM-13 [1] | > 10
MV4-11 [11] | > 10
Mono-Mac-6 | > 10
NOMO-1 [10] | > 10
SHI-1 | > 10
THP-1 [9] | > 10

cell viability [%], HL-60 [13]
Conditions | 0.001 µM | 0.01 µM | 0.1 µM | 1 µM | 10 µM
co-treatment: AZD3965 100 nM | 93.4 ± 7.9 | 77.9 ± 30 | 104 ± 9.4 | 99.66 ± 0.67 | 104 ± 2.6
co-treatment: DMSO vehicle | 92.2 ± 2.7 | 96.4 ± 5 | 100.5 ± 0.45 | 99 ± 3.1 | 106.8 ± 0.64
co-treatment: GSK2194069 100 nM | 96.6 ± 7.5 | 94.9 ± 2.8 | 101 ± 1.3 | 98.86 ± 0.35 | 100 ± 3.5
co-treatment: pictilisib 100 nM | 88.1 ± 2.1 | 95.5 ± 3.9 | 103 ± 0.92 | 94.5 ± 6.2 | 105 ± 5.5

cell viability [%]
Conditions | 1 nM | 10 nM | 100 nM | 1000 nM | 10000 nM
BV-173 [15] | 108 | 90.1 | 101 | 107 | 102
HL-60 [25] | 122 | 100 | 111 | 105 | 109
K-562 [21] | 104 | 125 | 93.3 | 101 | 110
KCL-22 [18] | 104 | – | 96.6 | 103 | 97.3
KG-1 [19] | 103 | 89.4 | 92.8 | 102 | 96.7
KU-812 [17] | 98.8 | 90.5 | 99.5 | 106 | 99.2
LAMA-84 [20] | 105 | 105 | 100 | 107 | 107
ML-2 [16] | 107 | 103 | 103 | 100 | 98.7
MOLM-13 [14] | 86.5 | 93.2 | 100 | 97.7 | 66.1
MV4-11 [24] | 108 | 103 | 93.1 | 101 | 89.4
NOMO-1 [23] | 102 | 96.3 | 99 | 117 | 101
THP-1 [22] | 97 | 93.1 | 101 | 102 | 102

N/C(=N\CCCC(N)C(=O)O)N[N+](=O)[O-] [L-NNA]
Conditions | IC50 (cell viability) [µM]
BV-173 [2] | > 10
HEL | > 10
HL-60 [12] | > 10
K-562 [8] | > 10
KCL-22 [5] | > 10
KG-1 [6] | > 10
KU-812 [4] | > 10
LAMA-84 [7] | > 10
ML-2 [3] | > 10
MOLM-13 [1] | > 10
MV4-11 [11] | > 10
Mono-Mac-6 | > 10
NOMO-1 [10] | > 10
SHI-1 | > 10
THP-1 [9] | > 10

cell viability [%], HL-60 [13]
Conditions | 0.001 µM | 0.01 µM | 0.1 µM | 1 µM | 10 µM
co-treatment: AZD3965 100 nM | 104 ± 2.6 | 105 ± 4.7 | 106 ± 8.5 | 98.7 ± 2.9 | 101.2 ± 0.57
co-treatment: DMSO vehicle | 102.6 ± 0.88 | 99.86 ± 0.89 | 105 ± 1.6 | 99.1 ± 3.6 | 102 ± 7
co-treatment: GSK2194069 100 nM | 102 ± 4.6 | 99.1 ± 1.9 | 90.4 ± 40 | 99.9 ± 4 | 101 ± 2.3
co-treatment: pictilisib 100 nM | 97.6 ± 1.3 | 95.8 ± 8.7 | 102 ± 14 | 96.12 ± 0.83 | 100 ± 14

cell viability [%]
Conditions | 1 nM | 10 nM | 100 nM | 1000 nM | 10000 nM
BV-173 [15] | 96.5 | 103 | 105 | 88.9 | 96.1
HL-60 [25] | 96.1 | 75.4 | 114 | 92.4 | 126
K-562 [21] | 104 | 94.9 | 117 | 92.1 | 102
KCL-22 [18] | 92.7 | 107 | 106 | 94.8 | 93.5
KG-1 [19] | 89.2 | 93.7 | 96.3 | 92.6 | 89.8
KU-812 [17] | 88.3 | 92.6 | 102 | 87.4 | 91.8
LAMA-84 [20] | 101 | 105 | 100 | 90.9 | 101
ML-2 [16] | 90.7 | 102 | 102 | 93.7 | 94.5
MOLM-13 [14] | 102 | 73.6 | 92.4 | 98 | 88.4
MV4-11 [24] | 96.4 | 103 | 106 | 103 | 107
NOMO-1 [23] | 96.4 | 99.8 | 99.4 | 91.5 | 92.2
THP-1 [22] | 98.1 | 105 | 96.9 | 93 | 91.1

Reference: the supplement of paper PMC8671470
